Results: patent publication US9474790B2, “Stable, protracted GLP-1/glucagon receptor co-agonists for medical use” (Novo Nordisk A/S, priority 2013, dated 2016)
Numbered stars: 1 amine (or outer) side, 2 acyl side, 3 side chain; on linkers, the order of the positions; unused ones are H or OH. Square brackets hold non-standard residues; d marks the D form. Side chains are listed from the residue outwards. Peptide text beside a SMILES is read from it. * marks the point of attachment. C18 diacid = O=C(O)CCCCCCCCCCCCCCCCC(=O)*; γGlu = O=C(O)[C@H](CCC(=O)[*:2])N[*:1]; AEEA = NCCOCCOCC(=O)O; Ac3c = NC1(C(=O)O)CC1; Aib = CC(C)(N)C(=O)O

What was measured:
human GLP-1 receptor = target: T1, human GLP-1 receptor (Homo sapiens, UniProt P43220); assay: GLP-1 receptor potency, CRE luciferase reporter gene assay in BHK cells; assay type: cell-based; details: BHK cells expressing human GLP-1 receptor, read-out: EC50 GLP-1R
T1 construct: expressed in transfected cells; host or cells: BHK cells (parent BHKTS13), clone FCW467-12A/KZ10-1, with CRE luciferase
Procedure: The purpose of this example was to test the potency, of the glucagon derivatives of the invention, in vitro. The in vitro potency is the measure of human GLP-1 receptor or glucagon receptor activation, respectively, in a whole cell assay.
In vitro potency was determined by measuring the response of human GLP-1 or glucagon receptor, respectively, in a reporter gene assay. The assay was performed in a stably transfected BHK cell line that expresses either the human GLP-1 receptor or the human glucagon receptor and contains the DNA for the cAMP response element (CRE) coupled to a promoter and the gene for firefly luciferase (CRE luciferase). […] When assay incubation was completed, the luciferase substrate (luciferin) was added and the enzyme converted luciferin to oxyluciferin and produces bioluminescence. The luminescence was measured as the readout for the assay.
The cells used in this assay (clone FCW467-12A/KZ10-1) were BHK cells with BHKTS13 as a parent cell line. The cells were derived from a clone (FCW467-12A) that expresses the human GLP-1 receptor and were established by further transfection with
CRE luciferase to obtain the current clone.
The cells were cultured at 5% CO2 in DMEM medium with 10% FBS, 1×GlutaMAX, 1 mg/ml G418, 240 nM MTX (methotrexate) and 1% pen/strep (penicillin/streptomycin). They were aliquoted and stored in liquid nitrogen. Before each assay, an aliquot was taken up and washed three times in PBS before being suspended at the desired concentration in assay medium. For 96-well plates the suspension was made to give a final concentration of 5×10EE3 cells/well.
The following chemicals were used in the assay: Pluronic F-68 (10%) (Gibco 2404), ovalbumin (Sigma A5503), DMEM w/o phenol red (Gibco 11880-028), 1 M Hepes (Gibco 15630), Glutamax 100× (Gibco 35050) and steadylite plus (PerkinElmer 6016757).
Assay Medium consisted of DMEM w/o phenol red, 10 mM Hepes, lx GlutaMAX, 2% Ovalbumin and 0.2% Pluronic F-68.
Cell stocks were thawed in a 37° C. water bath. Cells were washed three times in PBS. The cells were counted and adjusted to 5×10EE3 cells/50 μl (1×10EE5 cells/ml) in Assay Medium. A 50 μl aliquot of cells was transferred to each well in the assay plate.
Stocks of the test compounds and reference compounds were diluted to a concentration of […] in Assay Medium. Compounds were diluted 10-fold to give the following concentrations: 2×10EE-6 M, 2×10EE-7 M, 2×10EE-8 M; 2×10EE-9 M, 2×10EE-10 M, 2×10EE-11 M, 2×10EE-12 M and 2×10EE-13 M. For each compound a blank assay medium control was also included.
A 50 μl aliquot of compound or blank was transferred from the dilution plate to the assay plate. Compounds were tested at the following final concentrations: 1×10EE-6 M, 1×10EE-7 M, 1×10EE-8 M; 1×10EE-9 M, 1×10EE-10 M, 1×10EE-11 M and 1×10EE-12 M and 1×10EE-13 M.
The assay plate was incubated for 3 h in a 5% CO2 incubator at 37° C. The assay plate was removed from the incubator and allowed to stand at room temperature for 15 min. A 100 μl aliquot of steadylite plus reagent was added to each well of the assay plate (reagent is light sensitive). Each assay plate was covered with aluminum foil to protect it from light and shaken for 30 min at room temperature. Each assay plate was read in a Perkin Elmer TopCount NXT instrument.
The data from the TopCount instrument was transferred to GraphPad Prism software. The software performed a non-linear regression (log(agonist) vs response-Variable slope (four parameter)). EC50 values were calculated by the software and reported in pM.

[1] = Thioflavin T (ThT) fibrillation assay for physical stability; assay type: physicochemical; details: 250 μM in 10 mM HEPES buffer, pH 7.5, 37° C., shaking 960 rpm
Summary of the method: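 Peptide at 250 μM in 10 mM HEPES pH 7.5 with 1 μM ThT, at 37° C with 960 rpm orbital shaking. Fluorescence (ex 444/em 485 nm) read every 20 min after 10 min pre-incubation; sigmoidal fit gives lag time (t0−2τ) and kapp (1/τ). Recovery is RP-HPLC peptide in the centrifuged, 0.22 μm-filtered supernatant as % of initial.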

T1 sequence (P43220 24-463): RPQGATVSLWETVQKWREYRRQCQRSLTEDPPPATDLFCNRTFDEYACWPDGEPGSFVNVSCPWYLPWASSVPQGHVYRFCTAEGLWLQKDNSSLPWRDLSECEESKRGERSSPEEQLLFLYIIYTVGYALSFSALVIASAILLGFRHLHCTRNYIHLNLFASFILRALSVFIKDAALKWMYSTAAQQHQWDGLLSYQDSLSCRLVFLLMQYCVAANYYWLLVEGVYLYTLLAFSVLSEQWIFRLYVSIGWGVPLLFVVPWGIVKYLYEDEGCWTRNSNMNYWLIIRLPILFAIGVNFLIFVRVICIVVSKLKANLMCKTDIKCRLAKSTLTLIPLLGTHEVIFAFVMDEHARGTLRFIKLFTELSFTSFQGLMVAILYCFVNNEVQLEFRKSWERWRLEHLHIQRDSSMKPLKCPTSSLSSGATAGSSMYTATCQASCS

SMILES | EC50 (human GLP-1 receptor) [pM] | THT assay Lag time (Ex. 76) [1] [h]
CC(C)C[C@H](NC(=O)[C@H](CC(C)C)NC(=O)[C@H](Cc1c[nH]c2ccccc12)NC(=O)[C@H](CCC(N)=O)NC(=O)[C@@H](NC(=O)[C@H](Cc1ccccc1)NC(=O)[C@H](CC(=O)O)NC(=O)[C@H](CCCCN)NC(=O)[C@H](C)NC(=O)[C@H](CCCNC(=N)N)NC(=O)[C@H](CCCNC(=N)N)NC(=O)[C@H](CCC(=O)O)NC(=O)[C@H](CC(=O)O)NC(=O)[C@H](CC(C)C)NC(=O)[C@H](Cc1ccc(O)cc1)NC(=O)[C@H](CCCCN)NC(=O)[C@H](CO)NC(=O)[C@H](CC(C)C)NC(=O)[C@H](CC(=O)O)NC(=O)[C@H](CO)NC(=O)[C@@H](NC(=O)[C@H](Cc1ccccc1)NC(=O)[C@@H](NC(=O)CNC(=O)[C@H](CCC(N)=O)NC(=O)C(C)(C)NC(=O)[C@@H](N)Cc1c[nH]cn1)[C@@H](C)O)[C@@H](C)O)C(C)C)C(=O)N[C@@H](CO)C(=O)N[C@@H](CCCCNC(=O)CC[C@H](NC(=O)CC[C@H](NC(=O)COCCOCCNC(=O)COCCOCCNC(=O)CC[C@H](NC(=O)CCCCCCCCCCCCCCCCC(=O)O)C(=O)O)C(=O)O)C(=O)O)C(N)=O [Example 13, N^ε29-[(4S)-4-carboxy-4-[[(4S)-4-carboxy-4-[[2-[2-[2-[[2-[2-[2-[[(4S)-4-carboxy-4-(17-carboxyheptadecanoylamino)butanoyl]amino]ethoxy]ethoxy]acetyl]amino]ethoxy]ethoxy]acetyl]amino]butanoyl]amino]butanoyl]-[Aib2,Leu10,Glu16,Lys20,Leu27,Ser28,Lys29]-Glucagon amide] (H-H[Aib]QGTFTSDLSKYLDERRAKDFVQWLLSK([γGlu-γGlu-AEEA-AEEA-γGlu-C18 diacid])-NH2; N-terminus assumed) | 6 | 
CC(C)C[C@H](NC(=O)[C@H](CC(C)C)NC(=O)[C@H](Cc1c[nH]c2ccccc12)NC(=O)[C@H](CCCNC(=N)N)NC(=O)[C@@H](NC(=O)[C@H](Cc1ccccc1)NC(=O)[C@H](CC(=O)O)NC(=O)[C@H](CCC(N)=O)NC(=O)[C@H](C)NC(=O)[C@H](CCCNC(=N)N)NC(=O)[C@H](CCCNC(=N)N)NC(=O)[C@@H](NC(=O)[C@H](CC(=O)O)NC(=O)[C@H](CC(C)C)NC(=O)[C@H](Cc1ccc(O)cc1)NC(=O)[C@H](CCCCN)NC(=O)[C@H](CO)NC(=O)[C@H](CC(C)C)NC(=O)[C@H](CC(=O)O)NC(=O)[C@H](CO)NC(=O)[C@@H](NC(=O)[C@H](Cc1ccccc1)NC(=O)[C@@H](NC(=O)CNC(=O)[C@H](CCC(N)=O)NC(=O)C(C)(C)NC(=O)[C@@H](N)Cc1c[nH]cn1)[C@@H](C)O)[C@@H](C)O)[C@@H](C)O)C(C)C)C(=O)N[C@@H](CO)C(=O)N[C@@H](CCCCNC(=O)CC[C@H](NC(=O)CC[C@H](NC(=O)COCCOCCNC(=O)COCCOCCNC(=O)CC[C@H](NC(=O)CCCCCCCCCCCCCCCCC(=O)O)C(=O)O)C(=O)O)C(=O)O)C(N)=O [Example 15, N^ε29-[(4S)-4-carboxy-4-[[(4S)-4-carboxy-4-[[2-[2-[2-[[2-[2-[2-[[(4S)-4-carboxy-4-(17-carboxyheptadecanoylamino)butanoyl]amino]ethoxy]ethoxy]acetyl]amino]ethoxy]ethoxy]acetyl]amino]butanoyl]amino]butanoyl]-[Aib2,Leu10,Thr16,Arg24,Leu27,Ser28,Lys29]-Glucagon amide] (H-H[Aib]QGTFTSDLSKYLDTRRAQDFVRWLLSK([γGlu-γGlu-AEEA-AEEA-γGlu-C18 diacid])-NH2; N-terminus assumed) | 20 | 
CC(C)C[C@H](NC(=O)[C@H](Cc1ccc(O)cc1)NC(=O)[C@H](CCCCN)NC(=O)[C@H](CO)NC(=O)[C@H](CC(C)C)NC(=O)[C@H](CC(=O)O)NC(=O)[C@H](CO)NC(=O)[C@@H](NC(=O)[C@H](Cc1ccccc1)NC(=O)[C@@H](NC(=O)CNC(=O)[C@H](CCC(N)=O)NC(=O)C1(NC(=O)[C@@H](N)Cc2c[nH]cn2)CC1)[C@@H](C)O)[C@@H](C)O)C(=O)N[C@@H](CCC(=O)O)C(=O)N[C@@H](CO)C(=O)N[C@@H](CCCNC(=N)N)C(=O)N[C@@H](CCCNC(=N)N)C(=O)N[C@@H](C)C(=O)N[C@@H](CCCNC(=N)N)C(=O)N[C@@H](CCC(=O)O)C(=O)N[C@@H](Cc1ccccc1)C(=O)N[C@H](C(=O)N[C@@H](CCC(N)=O)C(=O)N[C@@H](Cc1c[nH]c2ccccc12)C(=O)N[C@@H](CC(C)C)C(=O)N[C@@H](CC(C)C)C(=O)N[C@@H](CCCCNC(=O)CC[C@H](NC(=O)CC[C@H](NC(=O)COCCOCCNC(=O)COCCOCCNC(=O)CC[C@H](NC(=O)CCCCCCCCCCCCCCCCC(=O)O)C(=O)O)C(=O)O)C(=O)O)C(=O)N[C@H](C(N)=O)[C@@H](C)O)C(C)C [Example 50, N^ε28-[(4S)-4-carboxy-4-[[(4S)-4-carboxy-4-[[2-[2-[2-[[2-[2-[2-[[(4S)-4-carboxy-4-(17-carboxyheptadecanoylamino)butanoyl]amino]ethoxy]ethoxy]acetyl]amino]ethoxy]ethoxy]acetyl]amino]butanoyl]amino]butanoyl]-[Acpr2,Leu10,Glu15,Arg20,Glu21,Leu27,Lys28]-Glucagon amide] (H-H[Ac3c]QGTFTSDLSKYLESRRAREFVQWLLK([γGlu-γGlu-AEEA-AEEA-γGlu-C18 diacid])T-NH2; N-terminus assumed) | 11 | 28
CC(C)C[C@H](NC(=O)[C@H](CC(=O)O)NC(=O)[C@H](CC(C)C)NC(=O)[C@H](Cc1ccc(O)cc1)NC(=O)[C@H](CCCCN)NC(=O)[C@H](CO)NC(=O)[C@H](CC(C)C)NC(=O)[C@H](CC(=O)O)NC(=O)[C@H](CO)NC(=O)[C@@H](NC(=O)[C@H](Cc1ccccc1)NC(=O)[C@@H](NC(=O)CNC(=O)[C@H](CCC(N)=O)NC(=O)C(C)(C)NC(=O)[C@@H](N)Cc1c[nH]cn1)[C@@H](C)O)[C@@H](C)O)C(=O)N[C@@H](CCCNC(=N)N)C(=O)N[C@@H](CCCNC(=N)N)C(=O)N[C@@H](C)C(=O)N[C@@H](CCC(N)=O)C(=O)N[C@@H](CC(=O)O)C(=O)N[C@@H](Cc1ccccc1)C(=O)N[C@H](C(=O)N[C@@H](CCC(N)=O)C(=O)N[C@@H](Cc1c[nH]c2ccccc12)C(=O)N[C@@H](CC(C)C)C(=O)N[C@@H](CC(C)C)C(=O)N[C@@H](CCCCNC(=O)CC[C@H](NC(=O)CC[C@H](NC(=O)[C@H](CO)NC(=O)[C@H](CCC(=O)O)NC(=O)[C@H](CO)NC(=O)CC[C@H](NC(=O)CC[C@H](NC(=O)CCCCCCCCCCCCCCCCC(=O)O)C(=O)O)C(=O)O)C(=O)O)C(=O)O)C(=O)N[C@H](C(N)=O)[C@@H](C)O)C(C)C [Example 53, N^ε28-[(4S)-4-carboxy-4-[[(4S)-4-carboxy-4-[[(2S)-2-[[(2S)-4-carboxy-2-[[(2S)-2-[[(4S)-4-carboxy-4-[[(4S)-4-carboxy-4-(17-carboxyheptadecanoylamino)butanoyl]amino]butanoyl]amino]-3-hydroxypropanoyl]amino]butanoyl]amino]-3-hydroxypropanoyl]amino]butanoyl]amino]butanoyl]-[Aib2,Leu10,Leu16,Leu27,Lys28]-Glucagon amide] (H-H[Aib]QGTFTSDLSKYLDLRRAQDFVQWLLK([γGlu-γGlu-Ser-Glu-Ser-γGlu-γGlu-C18 diacid])T-NH2; N-terminus assumed) | 11 | 45
